Experimental data published in patent publication US9549556B2, “Macrocyclic picolinamides as fungicides” (DOW AGROSCIENCES LLC, priority 2013, dated 2017).
Where two headings read alike, the source gives them in different places.

Experiments:
[1] = tested on: Puccinia triticina; test: Wheat brown rust (PUCCRT) disease control on wheat seedlings; assay type: in vivo; settings: read-out: PUCCRT disease control rating (% Control); for pest or weed control at 121.5 g/ha: 121.5 g/H, low volume (track spray) application; for pest or weed control at 100 ppm: high volume application
[2] = tested on: Septoria tritici; test: Leaf blotch of wheat (SEPTTR) disease control on wheat seedlings; assay type: in vivo, Mycosphaerella graminicola (anamorph Septoria tritici); settings: Zymoseptoria tritici, read-out: SEPTTR disease control rating (% Control); for pest or weed control at 121.5 g/ha: 121.5 g/H, low volume (track spray) application; for pest or weed control at 100 ppm: high volume application
Experimental: Evaluation of Fungicidal Activity: Leaf Blotch of Wheat (Mycosphaerella graminicola; Anamorph: Septoria tritici; Bayer Code […]) Technical grades of materials were dissolved in acetone, which were then mixed with nine volumes of water containing 110 ppm Triton X-100. The fungicide solutions were applied onto wheat seedlings using an automated booth sprayer to run-off. All sprayed plants were allowed to air dry prior to further handling. All fungicides were evaluated using the aforementioned method for their activity vs. all target diseases. Wheat leaf blotch and brown rust activity were also evaluated using track spray applications, in which case the fungicides were formulated as EC formulations, containing 0.1% Trycol 5941 in the spray solutions. Wheat plants (variety Yuma) were grown from seed in a greenhouse in 50% mineral soil/50% soil-less Metro mix until the first leaf was fully emerged, with 7-10 seedlings per pot. These plants were inoculated with an aqueous spore suspension of Septoria tritici either prior to or after fungicide treatments. After inoculation the plants were kept in 100% relative humidity (one day in a dark dew chamber followed by two to three days in a lighted dew chamber at 20° C.) to permit spores to germinate and infect the leaf. The plants were then transferred to a greenhouse set at 20° C. for disease to develop. When disease symptoms were fully expressed on the 1st leaves of untreated plants, infection levels were assessed on a scale of 0 to 100 percent disease severity. Percent disease control was calculated using the ratio of disease severity on treated plants relative to untreated plants.

Compound	pest or weed control at 121.5 g/ha ([1]; 24 h, 1DP (1 Day Protectant))	pest or weed control at 121.5 g/ha ([1]; 72 h, 3DC (3 Day Curative))	pest or weed control at 121.5 g/ha ([2]; 24 h, 1DP (1 Day Protectant))	pest or weed control at 121.5 g/ha ([2]; 72 h, 3DC (3 Day Curative))	melting point	pest or weed control at 100 ppm ([1]; 24 h, 1DP (1 Day Protectant))	pest or weed control at 100 ppm ([1]; 72 h, 3DC (3 Day Curative))	pest or weed control at 100 ppm ([2]; 24 h, 1DP (1 Day Protectant))	pest or weed control at 100 ppm ([2]; 72 h, 3DC (3 Day Curative))
COc1ccnc(C(=O)N[C@H]2COC[C@H](Oc3ccccc3)[C@@H](CCC(C)C)[C@H](C)OC2=O)c1OCOC(C)=O [Compound 32]	> 70%	> 70%	> 70%	> 70%	44 to 50 °C	–	–	–	–
CCCO[C@H]1COC[C@H](NC(=O)OC(C)(C)C)C(=O)O[C@@H](C)[C@@H]1CCC(C)C [Compound 39, tert-butyl ((3S,7R,8S,9S)-8-isopentyl-9-methyl-2-oxo-7-propoxy-1,5-dioxonan-3-yl)carbamate]	–	–	–	–	74 to 77 °C	–	–	–	–
CC(C)CC[C@H]1[C@H](C)OC(=O)[C@@H](NC(=O)OC(C)(C)C)COC[C@@H]1OCc1ccccc1 [Compound 42]	–	–	–	–	70 to 72 °C	–	–	–	–
COc1ccnc(C(=O)N[C@H]2COC[C@H](OCc3ccccc3)[C@@H](CCC(C)C)[C@H](C)OC2=O)c1O [Compound 46]	–	–	–	–	104 to 106 °C	> 70%	> 70%	> 70%	< 70%
CC(C)CC[C@H]1[C@H](C)OC(=O)[C@@H](NC(=O)OC(C)(C)C)COC[C@@H]1OC(=O)C1CC1 [Compound 49, (3S,7R,8S,9S)-3-((tert-butoxycarbonyl)amino)-8-isopentyl-9-methyl-2-oxo-1,5-dioxonan-7-yl cyclopropanecarboxylate]	–	–	–	–	92 to 95 °C	–	–	–	–
CCCO[C@H]1COC[C@H](NC(=O)c2nccc(OC)c2O)C(=O)O[C@@H](C)[C@@H]1CCC(C)C [Compound 53, 3-hydroxy-N-((3S,7R,8S,9S)-8-isopentyl-9-methyl-2-oxo-7-propoxy-1,5-dioxonan-3-yl)-4-methoxypicolinamide]	–	–	–	–	54 to 57 °C	> 70%	> 70%	< 70%	< 70%
COc1ccnc(C(=O)N[C@H]2COC[C@H](OC(=O)C3CC3)[C@@H](CCC(C)C)[C@H](C)OC2=O)c1OCOC(C)=O [Compound 57]	> 70%	> 70%	< 70%	> 70%	45 to 50 °C	–	–	–	–
COc1ccnc(C(=O)N[C@H]2COC[C@H](Oc3ccccc3)[C@@H](CCC(C)C)[C@H](C)OC2=O)c1O [Compound 60]	–	–	–	–	58 to 62 °C	> 70%	> 70%	> 70%	< 70%
CCCO[C@H]1COC[C@H](NC(=O)c2nccc(OC)c2OCOC(C)=O)C(=O)O[C@@H](C)[C@@H]1Cc1ccc(F)cc1 [Compound 62]	> 70%	> 70%	> 70%	> 70%	–	–	–	–	–
COc1ccnc(C(=O)N[C@H]2COC[C@H](Oc3ccc(C)cc3)[C@@H](Cc3ccc(F)cc3)[C@H](C)OC2=O)c1OCOC(C)=O [Compound 64]	> 70%	< 70%	> 70%	> 70%	–	–	–	–	–
CCCC[C@H]1[C@H](C)OC(=O)[C@@H](NC(=O)c2nccc(OC)c2O)COC[C@@H]1OCCCC(F)(F)F [Compound 65]	–	–	–	–	–	> 70%	< 70%	> 70%	> 70%
CC(C)CC[C@H]1[C@H](C)OC(=O)[C@@H](NC(=O)OC(C)(C)C)COC[C@@H]1O [Compound 66, tert-butyl ((3S,7R,8R,9S)-7-hydroxy-8-isopentyl-9-methyl-2-oxo-1,5-dioxonan-3-yl)carbamate]	–	–	–	–	112 to 115 °C	–	–	–	–
COc1ccnc(C(=O)N[C@H]2COC[C@H](OC(=O)C3CC3)[C@@H](CCC(C)C)[C@H](C)OC2=O)c1OC(C)=O [Compound 68, (3S,7R,8S,9S)-3-(3-acetoxy-4-methoxypicolinamido)-8-isopentyl-9-methyl-2-oxo-1,5-dioxonan-7-yl cyclopropanecarboxylate]	> 70%	> 70%	< 70%	> 70%	–	–	–	–	–
COc1ccnc(C(=O)N[C@H]2COC[C@H](OCC3CC3)[C@@H](Cc3ccc(F)cc3)[C@H](C)OC2=O)c1OCOC(C)=O [Compound 71]	> 70%	> 70%	> 70%	> 70%	–	–	–	–	–
COc1ccnc(C(=O)N[C@H]2COC[C@H](OCOCc3ccccc3)[C@@H](Cc3ccccc3)[C@H](C)OC2=O)c1O [Compound 72, N-((3S,7R,8S,9S)-8-benzyl-7-((benzyloxy)methoxy)-9-methyl-2-oxo-1,5-dioxonan-3-yl)-3-hydroxy-4-methoxypicolinamide]	–	–	–	–	–	> 70%	< 70%	< 70%	< 70%
COCCC(=O)Oc1c(OC)ccnc1C(=O)N[C@H]1COC[C@H](Oc2ccccc2)[C@@H](Cc2ccccc2)[C@H](C)OC1=O [Compound 73]	> 70%	> 70%	> 70%	> 70%	–	–	–	–	–
COc1ccnc(C(=O)N[C@H]2COC[C@H](Oc3ccccc3)[C@@H](Cc3ccccc3)[C@H](C)OC2=O)c1O [Compound 77]	–	–	–	–	49 to 54 °C	–	–	–	–
COc1ccnc(C(=O)N[C@H]2COC[C@H](OCC3CC3)[C@@H](Cc3ccccc3)[C@H](C)OC2=O)c1OCOC(C)=O [Compound 80]	> 70%	> 70%	> 70%	> 70%	–	> 70%	> 70%	> 70%	> 70%
COc1ccnc(C(=O)N[C@H]2COC[C@H](Oc3ccccc3)[C@@H](Cc3ccccc3)[C@H](C)OC2=O)c1OC(C)=O [Compound 81]	> 70%	> 70%	> 70%	> 70%	–	–	–	–	–
COc1ccnc(C(=O)N[C@H]2COC[C@H](OCC3CC3)[C@@H](Cc3ccccc3)[C@H](C)OC2=O)c1O [Compound 83]	–	–	–	–	–	> 70%	> 70%	> 70%	> 70%
COc1ccnc(C(=O)N[C@H]2COC[C@H](Oc3ccccc3)[C@@H](Cc3ccccc3)[C@H](C)OC2=O)c1OCOC(C)=O [Compound 84]	> 70%	> 70%	> 70%	> 70%	–	–	–	–	–
COc1ccnc(C(=O)N[C@H]2COC[C@H](OCC(C)C)[C@@H](Cc3ccccc3)[C@H](C)OC2=O)c1OCOC(C)=O [Compound 85]	> 70%	> 70%	> 70%	> 70%	–	> 70%	> 70%	< 70%	> 70%
